Measurements: ChEMBL document CHEMBL1201862, “PubChem BioAssay data set” (2004)
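Step 1: Grow cells in 96-well plates. Step 2: Expose to compound for 48 hours at 5 concentrations. Step 3: Interpolate endpoints linearly; if unreached, use highest concentration. Here, GI50 denotes the concentration required for 50% inhibition of growth.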 Calls of active or inactive are those of the source. Cut-off read from the data, not from the text of the source: active = GI50 up to about 1.1 µM and inactive = higher.

How the values were obtained:
Assay in all cases: NCI-60 cell line screen, 48 h
786-0 = system: 786-0
A549 = system: A549
ACHN = system: ACHN
HT-29 = system: HT-29
IGROV-1 = system: IGROV-1
M14 = system: M14
MCF7 = system: MCF7
MDA-MB-231 = system: MDA-MB-231
MOLT-4 = system: MOLT-4
NCI-H226 = system: NCI-H226
OVCAR-5 = system: OVCAR-5
SF-295 = system: SF-295
SK-MEL-2 = system: SK-MEL-2
SR = system: SR
SW-620 = system: SW-620
T47D = system: T47D
U-251 = system: U-251
UACC-257 = system: UACC-257
UO-31 = system: UO-31
KM12 = system: KM12

SMILES | GI50 (786-0) | GI50 (A549) | GI50 (ACHN) | GI50 (HT-29) | GI50 (IGROV-1) | GI50 (M14) | GI50 (MCF7) | GI50 (MDA-MB-231) | GI50 (MOLT-4) | GI50 (NCI-H226) | GI50 (OVCAR-5) | GI50 (SF-295) | GI50 (SK-MEL-2) | GI50 (SR) | GI50 (SW-620) | GI50 (T47D) | GI50 (U-251) | GI50 (UACC-257) | GI50 (UO-31) | GI50 (KM12)
Nc1nc2cc(CNc3ccc(C(=O)O)cc3)ccc2nc1-c1ccccc1 | > 100 µM (inactive) | > 100 µM (inactive) | > 100 µM (inactive) | > 100 µM (inactive) | > 100 µM (inactive) | > 100 µM (inactive) | > 100 µM (inactive) | > 100 µM (inactive) | 69.8 µM (inactive) | > 100 µM (inactive) | > 100 µM (inactive) | > 100 µM (inactive) | > 100 µM (inactive) | > 100 µM (inactive) | > 100 µM (inactive) | 35.1 µM (inactive) | > 100 µM (inactive) | > 100 µM (inactive) | 86.5 µM (inactive) | –
COc1ccc2[nH]c(C(=O)N3CC(CCl)c4ccc(N)cc43)cc2c1 (configuration not stated) | 0.233 µM (active) | 0.0964 µM (active) | 0.0728 µM (active) | 0.151 µM (active) | 0.175 µM (active) | 0.146 µM (active) | 0.0689 µM (active) | 0.202 µM (active) | 0.165 µM (active) | 0.32 µM (active) | 0.316 µM (active) | 0.201 µM (active) | 0.199 µM (active) | – | 0.173 µM (active) | 0.455 µM (active) | 0.313 µM (active) | 0.241 µM (active) | 0.145 µM (active) | 0.156 µM (active)
CC1(C)N=c2c(ncn2N)=C(C(N)=O)N1 | > 100 µM (inactive) | > 100 µM (inactive) | > 100 µM (inactive) | > 100 µM (inactive) | > 100 µM (inactive) | > 100 µM (inactive) | > 100 µM (inactive) | > 100 µM (inactive) | – | > 100 µM (inactive) | > 100 µM (inactive) | > 100 µM (inactive) | – | > 100 µM (inactive) | > 100 µM (inactive) | > 100 µM (inactive) | > 100 µM (inactive) | > 100 µM (inactive) | – | > 100 µM (inactive)
CCOC(=O)/C=C/c1cccc(F)c1 | > 100 µM (inactive) | > 100 µM (inactive) | > 100 µM (inactive) | > 100 µM (inactive) | > 100 µM (inactive) | > 100 µM (inactive) | > 100 µM (inactive) | > 100 µM (inactive) | > 100 µM (inactive) | > 100 µM (inactive) | > 100 µM (inactive) | – | > 100 µM (inactive) | > 100 µM (inactive) | > 100 µM (inactive) | > 100 µM (inactive) | > 100 µM (inactive) | > 100 µM (inactive) | > 100 µM (inactive) | > 100 µM (inactive)
Cc1cc(S(=O)(=O)n2ccnc2Oc2ccccc2)c(SSc2cc(Cl)c(C)cc2S(=O)(=O)n2ccnc2Oc2ccccc2)cc1Cl | 93.3 µM (inactive) | > 100 µM (inactive) | – | > 100 µM (inactive) | 42.6 µM (inactive) | > 100 µM (inactive) | > 100 µM (inactive) | > 100 µM (inactive) | – | 15.9 µM (inactive) | > 100 µM (inactive) | – | > 100 µM (inactive) | 44 µM (inactive) | > 100 µM (inactive) | > 100 µM (inactive) | > 100 µM (inactive) | > 100 µM (inactive) | > 100 µM (inactive) | > 100 µM (inactive)
COc1ccc2c(c1)CCc1cc(OC)ccc1/[N+]([O-])=[N+]\2[O-] | 6.27 µM (inactive) | 26.4 µM (inactive) | 10.8 µM (inactive) | 19.6 µM (inactive) | 12.1 µM (inactive) | 23 µM (inactive) | 9.29 µM (inactive) | 18.7 µM (inactive) | 3.67 µM (inactive) | – | 23.2 µM (inactive) | 19.9 µM (inactive) | 20.9 µM (inactive) | 3.28 µM (inactive) | 7.1 µM (inactive) | 17 µM (inactive) | 17.6 µM (inactive) | 18.3 µM (inactive) | 9.08 µM (inactive) | 20.2 µM (inactive)
Cc1nc(C)c(N2CCN(C#N)CC2)c(O)n1 | > 100 µM (inactive) | > 100 µM (inactive) | > 100 µM (inactive) | > 100 µM (inactive) | > 100 µM (inactive) | > 100 µM (inactive) | > 100 µM (inactive) | > 100 µM (inactive) | > 100 µM (inactive) | > 100 µM (inactive) | – | > 100 µM (inactive) | – | > 100 µM (inactive) | > 100 µM (inactive) | > 100 µM (inactive) | 77.8 µM (inactive) | > 100 µM (inactive) | > 100 µM (inactive) | > 100 µM (inactive)
COc1nc2ncc([C@@H](OC(C)=O)[C@@H](COC(C)=O)OC(C)=O)nc2c(=O)[nH]1 | > 100 µM (inactive) | > 100 µM (inactive) | > 100 µM (inactive) | > 100 µM (inactive) | > 100 µM (inactive) | > 100 µM (inactive) | > 100 µM (inactive) | > 100 µM (inactive) | – | 51.5 µM (inactive) | > 100 µM (inactive) | > 100 µM (inactive) | > 100 µM (inactive) | – | > 100 µM (inactive) | > 100 µM (inactive) | > 100 µM (inactive) | > 100 µM (inactive) | > 100 µM (inactive) | > 100 µM (inactive)
COC(=O)c1cc(C)n(CN(Cn2nc(C(=O)OC)cc2C)c2ccccc2)n1 | 24.5 µM (inactive) | 73.3 µM (inactive) | 18.7 µM (inactive) | 16.7 µM (inactive) | 43 µM (inactive) | 32.7 µM (inactive) | 28.1 µM (inactive) | > 100 µM (inactive) | 13.4 µM (inactive) | – | 48.4 µM (inactive) | 32.8 µM (inactive) | 36.1 µM (inactive) | 10 µM (inactive) | 29.6 µM (inactive) | 22 µM (inactive) | 39 µM (inactive) | 33.3 µM (inactive) | 18.3 µM (inactive) | 29.4 µM (inactive)
Cc1csc2nc(-c3ccc([N+](=O)[O-])cc3)c(/C=N/N=C(N)N)n12 | 1.94 µM (inactive) | 1.84 µM (inactive) | 1.28 µM (inactive) | 1.76 µM (inactive) | 1.44 µM (inactive) | 1.85 µM (inactive) | 1.61 µM (inactive) | 1.76 µM (inactive) | – | 1.73 µM (inactive) | 1.52 µM (inactive) | 1.74 µM (inactive) | 1.43 µM (inactive) | – | 1.94 µM (inactive) | 2.79 µM (inactive) | 1.8 µM (inactive) | 1.91 µM (inactive) | 1.49 µM (inactive) | 1.7 µM (inactive)
CN(C)c1ccc(/N=C2/NC(=N\c3ccccc3)/C(=N/c3ccccc3)S2)cc1 | 32 µM (inactive) | > 100 µM (inactive) | 49.1 µM (inactive) | > 100 µM (inactive) | > 100 µM (inactive) | > 100 µM (inactive) | 19.9 µM (inactive) | > 100 µM (inactive) | 89.1 µM (inactive) | > 100 µM (inactive) | > 100 µM (inactive) | > 100 µM (inactive) | 98.2 µM (inactive) | > 100 µM (inactive) | > 100 µM (inactive) | 53.1 µM (inactive) | – | > 100 µM (inactive) | – | > 100 µM (inactive)
CSC(SC)(C(=O)O)c1cc(-c2c(Cl)cccc2Cl)no1 | 39.5 µM (inactive) | 55.1 µM (inactive) | 46.9 µM (inactive) | 32.9 µM (inactive) | 30.4 µM (inactive) | 30.2 µM (inactive) | 70.1 µM (inactive) | 31.4 µM (inactive) | 24.5 µM (inactive) | 25.1 µM (inactive) | 60.1 µM (inactive) | 91.2 µM (inactive) | 26.3 µM (inactive) | 33 µM (inactive) | > 100 µM (inactive) | 28.4 µM (inactive) | 28.4 µM (inactive) | 42.9 µM (inactive) | 25.1 µM (inactive) | –
CC(CN1NC12CCCC2)N1NC12CCCC2 (configuration not stated) | > 100 µM (inactive) | > 100 µM (inactive) | > 100 µM (inactive) | > 100 µM (inactive) | > 100 µM (inactive) | > 100 µM (inactive) | > 100 µM (inactive) | > 100 µM (inactive) | > 100 µM (inactive) | > 100 µM (inactive) | > 100 µM (inactive) | > 100 µM (inactive) | > 100 µM (inactive) | – | > 100 µM (inactive) | > 100 µM (inactive) | > 100 µM (inactive) | 60.8 µM (inactive) | > 100 µM (inactive) | > 100 µM (inactive)
CC(=O)n1nc(-c2ccccc2)n(/N=C/c2ccc([N+](=O)[O-])o2)c1=O | 2.21 µM (inactive) | 7.21 µM (inactive) | 8.38 µM (inactive) | 3.37 µM (inactive) | 15.9 µM (inactive) | 1.94 µM (inactive) | 2.58 µM (inactive) | 8.34 µM (inactive) | 3.24 µM (inactive) | – | 1.47 µM (inactive) | 1.66 µM (inactive) | 6.97 µM (inactive) | 3.08 µM (inactive) | 5.87 µM (inactive) | 19.9 µM (inactive) | 15.9 µM (inactive) | 7.23 µM (inactive) | 1.77 µM (inactive) | 16.4 µM (inactive)
CCCCN1/C(=N/Nc2n[nH]c(=O)c3ccccc23)SCC1c1ccc(Cl)cc1 (configuration not stated) | 20 µM (inactive) | 5.26 µM (inactive) | 25.3 µM (inactive) | 24.2 µM (inactive) | 6.43 µM (inactive) | 5.55 µM (inactive) | 10.6 µM (inactive) | 20.6 µM (inactive) | – | 10.4 µM (inactive) | 29.1 µM (inactive) | 6.53 µM (inactive) | 20.9 µM (inactive) | 4.73 µM (inactive) | 19.8 µM (inactive) | 4.29 µM (inactive) | 4.92 µM (inactive) | 12.2 µM (inactive) | 18.7 µM (inactive) | 5.01 µM (inactive)
